Assay results from patent US11912682B2, “Isoindolinone compounds” (Monte Rosa Therapeutics, Inc., priority 2021, dated 2024).
Read-outs that look alike come from different tables or passages of the source.

Molecular target: GSPT1 (Homo sapiens (Human), UniProt P15170+Q96SW2)
Assay: immunofluorescence assay for GSPT1 degradation in CAL-51 cells (Example 10)
Assay type: cell-based
Conditions: read-out: IF Class (GSPT1 degradation DC50)
Experimental: The representative compounds were tested in an immunofluorescence assay for their activity to degrade GSPT1. […] Compounds were stored at 10 mM DMSO stocks. […] Cells were subsequently rinsed with PBS and fixed in 10% Formalin solution (50 μl, Sigma HT5011)) for 20 mins at room temperature. […] Following three further PBS washes, 50 μL blocking buffer (1% BSA, Sigma A4503, in PBS) was added for 45 min for signal-to noise reduction. Primary antibody (human GSPT1, Sigma HPA052488) was diluted in blocking buffer (dil.1/300, 35 μL/well) and incubated with the cells overnight at 4° C. […] After three final PBS washes, samples were conserved in 100 μL PBS in the dark, until measurement. Image acquisition was performed on the Operetta High-Content Imager (Perkin-Elmer). […] For the determination of GSPT1 DC50 values, a custom algorithm implemented in the PerkinElmer image analysis software Harmony-Acapella® was developed. After user-defined setting of adjustment parameters, the analysis was run identically without human intervention for all image fields. DAPI staining of the nuclei was used to determine the location of cells using standard nuclei detection modules. Segmentation artifacts were removed by threshold-based filters for area, roundness and intensity. The outline of the cells was determined analogously from the sum of the normalized, smoothed DAPI and Actin channel, starting from each nucleus. […] GSPT1 degradation (DC50) was calculated after normalization to controls and data import in CDD vault Database, using non-linear regression.

GSPT1, sequence (P15170 whole entry): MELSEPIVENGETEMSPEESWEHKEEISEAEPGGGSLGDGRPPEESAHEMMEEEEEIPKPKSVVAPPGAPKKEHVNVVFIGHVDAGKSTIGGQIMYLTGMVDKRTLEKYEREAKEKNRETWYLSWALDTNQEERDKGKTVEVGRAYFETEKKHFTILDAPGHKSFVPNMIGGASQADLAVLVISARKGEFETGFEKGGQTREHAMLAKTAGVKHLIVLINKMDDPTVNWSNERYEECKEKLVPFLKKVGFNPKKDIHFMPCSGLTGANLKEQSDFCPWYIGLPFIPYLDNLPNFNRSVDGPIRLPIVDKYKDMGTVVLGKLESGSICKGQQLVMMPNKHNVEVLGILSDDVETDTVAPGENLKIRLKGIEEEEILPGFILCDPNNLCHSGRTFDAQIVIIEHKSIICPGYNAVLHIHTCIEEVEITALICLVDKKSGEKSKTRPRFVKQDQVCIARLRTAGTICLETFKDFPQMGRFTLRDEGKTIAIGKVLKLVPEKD
GSPT1, sequence (Q96SW2 whole entry): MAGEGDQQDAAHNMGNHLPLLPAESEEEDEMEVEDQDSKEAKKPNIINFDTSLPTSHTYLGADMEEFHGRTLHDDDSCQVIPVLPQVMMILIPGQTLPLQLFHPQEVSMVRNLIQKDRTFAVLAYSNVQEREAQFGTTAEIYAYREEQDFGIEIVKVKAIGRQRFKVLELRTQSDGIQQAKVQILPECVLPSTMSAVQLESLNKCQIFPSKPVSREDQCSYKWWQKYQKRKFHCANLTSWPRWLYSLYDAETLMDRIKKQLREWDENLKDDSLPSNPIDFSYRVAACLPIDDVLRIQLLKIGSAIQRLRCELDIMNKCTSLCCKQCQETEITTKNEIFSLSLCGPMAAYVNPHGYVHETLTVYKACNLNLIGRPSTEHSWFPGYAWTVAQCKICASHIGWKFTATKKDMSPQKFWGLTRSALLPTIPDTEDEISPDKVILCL
GSPT1, sequence (Q16531 2-1140 partner): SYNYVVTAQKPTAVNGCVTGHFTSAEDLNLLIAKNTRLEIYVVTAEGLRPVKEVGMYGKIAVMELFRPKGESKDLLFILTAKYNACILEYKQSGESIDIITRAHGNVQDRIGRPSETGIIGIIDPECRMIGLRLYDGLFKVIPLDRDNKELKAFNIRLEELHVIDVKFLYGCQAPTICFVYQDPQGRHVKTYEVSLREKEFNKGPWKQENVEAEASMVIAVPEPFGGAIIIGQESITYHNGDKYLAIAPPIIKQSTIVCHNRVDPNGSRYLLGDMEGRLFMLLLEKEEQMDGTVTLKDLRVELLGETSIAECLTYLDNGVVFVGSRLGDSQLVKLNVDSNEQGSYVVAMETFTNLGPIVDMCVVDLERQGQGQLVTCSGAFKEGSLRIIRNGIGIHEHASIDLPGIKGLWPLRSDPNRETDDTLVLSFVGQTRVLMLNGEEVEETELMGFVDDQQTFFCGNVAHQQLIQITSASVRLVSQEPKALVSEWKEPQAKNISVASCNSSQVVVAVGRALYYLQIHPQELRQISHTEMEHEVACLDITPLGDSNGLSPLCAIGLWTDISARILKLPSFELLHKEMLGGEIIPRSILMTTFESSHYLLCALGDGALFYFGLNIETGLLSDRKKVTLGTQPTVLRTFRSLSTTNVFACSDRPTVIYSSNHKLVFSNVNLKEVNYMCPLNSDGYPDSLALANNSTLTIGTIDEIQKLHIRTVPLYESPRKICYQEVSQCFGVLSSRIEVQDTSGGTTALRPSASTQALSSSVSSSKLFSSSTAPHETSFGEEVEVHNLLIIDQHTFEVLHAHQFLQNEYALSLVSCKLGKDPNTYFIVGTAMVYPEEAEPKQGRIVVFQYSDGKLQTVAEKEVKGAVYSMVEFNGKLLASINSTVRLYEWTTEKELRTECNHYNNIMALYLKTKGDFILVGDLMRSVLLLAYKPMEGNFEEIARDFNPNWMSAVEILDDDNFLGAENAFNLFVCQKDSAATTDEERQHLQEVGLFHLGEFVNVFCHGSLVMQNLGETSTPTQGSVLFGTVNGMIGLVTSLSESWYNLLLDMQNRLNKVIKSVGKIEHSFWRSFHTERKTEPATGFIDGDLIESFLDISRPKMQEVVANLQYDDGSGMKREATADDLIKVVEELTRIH

Compound | DC50 (CAL-51 cells, 6 h) | DC50
Cc1cc(NC(=O)OCc2ccc3c(c2)C(=O)N(C2CCC(=O)NC2=O)C3)cc(Cl)c1C#N (stereo not shown) [Compound 177, (2-(2,6-diox opiperidin-3-yl)-3-oxoisoindolin-5-yl)methyl(3-chloro-4-cyano-5-methylphenyl)carbamate] | – | 30 to 300 nM
Cc1cc2c(c(NC(=O)OCc3ccc4c(c3)C(=O)N(C3CCC(=O)NC3=O)C4)c1)OCC2 (stereo not shown) [Compound 182] | > 300 nM | –
Cc1cc(NC(=O)OCc2ccc3c(c2)C(=O)N(C2CCC(=O)NC2=O)C3)cc(C#N)c1C (stereo not shown) [Compound 186] | < 30 nM | –
O=C1CCC(N2Cc3ccc(COC(=O)Nc4cc(Cl)cc5c4OCC5)cc3C2=O)C(=O)N1 (stereo not shown) [Compound 189] | 30 to 300 nM | –
O=C1CCC(N2Cc3ccc(COC(=O)NC45CC(F)(C4)C5)cc3C2=O)C(=O)N1 (stereo not shown) [Compound 190] | > 300 nM | –
C[C@@H]1CCCN1c1ccc(NC(=O)OCc2ccc3c(c2)C(=O)N(C2CCC(=O)NC2=O)C3)nc1 (stereo partly shown) [Compound 192] | 30 to 300 nM | –
Cc1cc(NC(=O)OCc2ccc3c(c2)C(=O)N(C2CCC(=O)NC2=O)C3)ncc1N1CCCC1 (stereo not shown) [Compound 194, (2-(2,6-dioxopiperidin-3-yl)-3-oxoisoindolin-5-yl)methyl (4-methyl-5-(pyrrolidin-1-yl)pyridin-2-yl) carbamate] | > 300 nM | –
CC(C)(O)c1ccc(NC(=O)OCc2ccc3c(c2)C(=O)N(C2CCC(=O)NC2=O)C3)cc1 (stereo not shown) [Compound 195, (2-(2,6-dioxopiperidin-3-yl)-3-oxoisoindolin-5-yl)methyl (4-(2-hydroxypropan-2-yl)phenyl)carbamate] | > 300 nM | –
O=C1CCC(N2Cc3ccc(COC(=O)NC45CC(N6CCCCC6)(C4)C5)cc3C2=O)C(=O)N1 (stereo not shown) [Compound 198] | > 300 nM | –
CC(C)(O)c1ccc(NC(=O)OCc2ccc3c(c2)C(=O)N(C2CCC(=O)NC2=O)C3)cn1 (stereo not shown) [Compound 199, (2-(2,6-dioxopiperidin-3-yl)-3-oxoisoindolin-5-yl)methyl (6-(2-hydroxypropan-2-yl)pyridin-3-yl)carbamate] | > 300 nM | –
O=C1CCC(N2Cc3ccc(COC(=O)NC45CC(CF)(C4)C5)cc3C2=O)C(=O)N1 (stereo not shown) [Compound 202, (2-(2,6-dioxopiperidin-3-yl)-3-oxoisoindolin-5-yl)methyl (3-(fluoromethyl)bicyclo[1.1.1]pentan-1-yl) carbamate] | > 300 nM | –
COC(=O)C12CC(NC(=O)OCc3ccc4c(c3)C(=O)N(C3CCC(=O)NC3=O)C4)(C1)C2 (stereo not shown) [Compound 203, methyl 3-((((2-(2,6-dioxopiperidin-3-yl)-3-oxoisoindolin-5-yl)methoxy)carbonyl)amino)bicyclo[1.1.1]pentane-1-carboxylate] | > 300 nM | –
Cc1cc(F)c(NC(=O)OCc2ccc3c(c2)C(=O)N(C2CCC(=O)NC2=O)C3)cc1C (stereo not shown) [Compound 208, (2-(2,6-dioxopiperidin-3-yl)-3-oxoisoindolin-5-yl)methyl (2-fluoro-4,5-dimethylphenyl)carbamate] | > 300 nM | –
O=C1CCC(N2Cc3ccc(COC(=O)Nc4ccc(C(O)C(F)(F)F)cc4)cc3C2=O)C(=O)N1 (stereo not shown) [Compound 209, (2-(2,6-dioxopiperidin-3-yl)-3-oxoisoindolin-5-yl)methyl (4-(2,2,2-trifluoro-1-hydroxyethyl)phenyl) carbamate] | > 300 nM | –

Second part, led by results:

DC50 (CAL-51 cells, 6 h) | Compound | DC50
< 30 nM | Cc1ccc(NC(=O)OCc2ccc3c(c2)C(=O)N(C2CCC(=O)NC2=O)C3)c(F)c1Cl (stereo not shown) [Compound 179, (2-(2,6-dioxopiperidin-3-yl)-3-oxoisoindolin-5-yl) methyl (3-chloro-2-fluoro-4-methylphenyl)carbamate] | –
30 to 300 nM | Cc1ccc(NC(=O)OCc2ccc3c(c2)C(=O)N(C2CCC(=O)NC2=O)C3)nc1Cl (stereo not shown) [Compound 183, (2-(2,6-dioxopiperidin-3-yl)-3-oxoisoindolin-5-yl)methyl (6-chloro-5-methylpyridin-2-yl)carbamate] | –
> 300 nM | CC(C)(C)[C@H]1C[C@@H](NC(=O)OCc2ccc3c(c2)C(=O)N(C2CCC(=O)NC2=O)C3)C1 (stereo partly drawn) [Compound 184, cis-(2-(2,6-dioxopiperidin-3-yl)-3-oxoisoindolin-5-yl)methyl ((1s,3s)-3-(tert-butyl)cyclobutyl)carbamate] | –
> 300 nM | CC(C)(C)[C@H]1C[C@H](NC(=O)OCc2ccc3c(c2)C(=O)N(C2CCC(=O)NC2=O)C3)C1 (stereo partly drawn) [Compound 185, trans-(2-(2,6-dioxopiperidin-3-yl)-3-oxoisoindolin-5-yl)methyl ((1s,3s)-3-(tert-butyl)cyclobutyl)carbamate] | –
30 to 300 nM | O=C1CCC(N2Cc3ccc(COC(=O)Nc4ccc(F)c(OC(F)F)c4F)cc3C2=O)C(=O)N1 (stereo not shown) [Compound 191, (2-(2,6-dioxopiperidin-3-yl)-3-oxoisoindolin-5-yl)methyl (3-(difluoromethoxy)-2,4-difluorophenyl) carbamate] | –
> 300 nM | O=C1CCC(N2Cc3ccc(COC(=O)NC45CC(C4)C5)cc3C2=O)C(=O)N1 (stereo not shown) [Compound 193, (2-(2,6-dioxopiperidin-3-yl)-3-oxoisoindolin-5-yl)methyl bicyclo[1.1.1]pentan-1-ylcarbamate] | –
30 to 300 nM | Cc1cc(F)c(NC(=O)OCc2ccc3c(c2)C(=O)N(C2CCC(=O)NC2=O)C3)cc1Br (stereo not shown) [Compound 197, (2-(2,6-dioxopiperidin-3-yl)-3-oxoisoindolin-5-yl)methyl (5-bromo-2-fluoro-4-methylphenyl)carbamate] | –
30 to 300 nM | O=C1CCC(N2Cc3ccc(COC(=O)Nc4cc(OC(F)(F)F)c(F)cc4F)cc3C2=O)C(=O)N1 (stereo not shown) [Compound 200, (2-(2,6-dioxopiperidin-3-yl)-3-oxoisoindolin-5-yl)methyl (2,4-difluoro-5-(trifluoromethoxy)phenyl)carbamate] | –
30 to 300 nM | Cc1cc(F)c(NC(=O)OCc2ccc3c(c2)C(=O)N(C2CCC(=O)NC2=O)C3)cc1OC(F)F (stereo not shown) [Compound 201, (2-(2,6-dioxopiperidin-3-yl)-3-oxoisoindolin-5-yl) methyl (5-(difluoromethoxy)-2-fluoro-4-methylphenyl)carbamate] | –
30 to 300 nM | Cc1cc(F)c(NC(=O)OCc2ccc3c(c2)C(=O)N(C2CCC(=O)NC2=O)C3)cc1OC(F)(F)F (stereo not shown) [Compound 204, (2-(2,6-dioxopiperidin-3-yl)-3-oxoisoindolin-5-yl) methyl (2-fluoro-4-methyl-5-(trifluoromethoxy)phenyl)carbamate] | –
30 to 300 nM | O=C1CCC(N2Cc3ccc(COC(=O)Nc4cc(F)c(OC(F)F)c(F)c4)cc3C2=O)C(=O)N1 (stereo not shown) [Compound 206, (2-(2,6-dioxopiperidin-3-yl)-3-oxoisoindolin-5-yl) methyl (4-(difluoromethoxy)-3,5-difluorophenyl)carbamate] | –
30 to 300 nM | O=C1CCC(N2Cc3ccc(COC(=O)Nc4cc(C5CC5)ccc4F)cc3C2=O)C(=O)N1 (stereo not shown) [Compound 207, (2-(2,6-dioxopiperidin-3-yl)-3-oxoisoindolin-5-yl)methyl (5-cyclopropyl-2-fluorophenyl) carbamate] | –
30 to 300 nM | Cc1cc(F)c(NC(=O)OCc2ccc3c(c2)C(=O)N(C2CCC(=O)NC2=O)C3)c(F)c1Cl (stereo not shown) [Compound 211, (2-(2,6-dioxopiperidin-3-yl)-3-oxoisoindolin-5-yl)methyl (3-chloro-2,6-difluoro-4-methylphenyl)carbamate] | –
< 30 nM | O=C1CCC(N2Cc3ccc(COC(=O)Nc4cc(F)c5c(c4)CCO5)cc3C2=O)C(=O)N1 (stereo not shown) [Compound 212, (2-(2,6-dioxopiperidin-3-yl)-3-oxoisoindolin-5-yl)methyl (7-fluoro-2,3-dihydrobenzofuran-5-yl)carbamate] | –
